Patent US20170037028A1 (BAYER PHARMA AKTIENGESELLSCHAFT, priority 2013, published 2017)

Biological target: T1, GLUT1 (Homo sapiens, UniProt P11166)
T1 sequence (P11166 1-492): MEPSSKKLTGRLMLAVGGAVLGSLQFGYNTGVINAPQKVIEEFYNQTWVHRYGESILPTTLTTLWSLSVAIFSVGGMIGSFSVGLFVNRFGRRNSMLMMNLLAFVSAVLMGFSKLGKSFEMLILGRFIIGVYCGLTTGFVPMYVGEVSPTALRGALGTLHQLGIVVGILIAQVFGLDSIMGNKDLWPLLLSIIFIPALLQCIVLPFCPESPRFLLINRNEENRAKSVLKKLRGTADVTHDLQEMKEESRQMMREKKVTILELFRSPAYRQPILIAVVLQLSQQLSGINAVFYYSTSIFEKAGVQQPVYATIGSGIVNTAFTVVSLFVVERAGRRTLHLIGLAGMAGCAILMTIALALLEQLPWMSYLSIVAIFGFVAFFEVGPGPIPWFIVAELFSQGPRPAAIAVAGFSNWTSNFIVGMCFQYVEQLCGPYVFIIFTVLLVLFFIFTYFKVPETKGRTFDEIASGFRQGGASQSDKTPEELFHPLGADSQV
Experiment: Indirect measurement of GLUT1 activity by quantification of intracellular ATP levels (glucose induced ATP increase)
Format: cell-based
Design: endogenous in cells; host or cells: DLD1 or CHO-K1
Settings: read-out: IC50 regarding glucose induced ATP increase (GLUT1 inhibition)
Text: Indirect Measurement of GLUT1 and GLUT2 Activity by Quantification of Intracellular ATP Levels
It is well known that a combination of small-molecule inhibitors of mitochondrial electron transport chain and glucose catabolism synergistically suppress ATP production and impair cellular viability (Ulanovskaya et al., 2008, 2011; Liu, et al. 2001). We therefore used DLD1 or CHO-K1 cells in combination with an oxidative phosphorylation inhibitor to identify GLUT1 and GLUT2 inhibitors. Cell lines were maintained in DMEM medium supplemented with 10% FCS and 1% Penicillin-Streptomycin solution and 2% Glutamax. The cells were treated with trypsin and seeded into 384 plates at a density of 4000 cells/well. The cells were then cultured overnight in glucose free media containing 1% FCS to reduce intracellular ATP levels. […] The CellTiter-Glo® Luminescent Cell Viability Assay from Promega was then used to measure ATP Levels.

Row | Structure (SMILES) | IC50
1 | Cc1nn(Cc2ccc(F)cc2)c(C)c1NC(=O)c1cc(C(F)(F)F)nc2cccc(Br)c12 [Example 34, 5-bromo-N-[1-(4-fluorobenzyl)-3,5-dimethyl-1H-pyrazol-4-yl]-2-(trifluoromethyl)quinoline-4-carboxamide] | 25.2 nM
2 | Cc1nn(Cc2ccc(F)c(F)c2)c(C)c1NC(=O)c1cc(C(F)(F)F)nc2c(Cl)cc(Cl)cc12 [Example 35, 6,8-dichloro-N-[1-(3,4-difluorobenzyl)-3,5-dimethyl-1H-pyrazol-4-yl]-2-(trifluoromethyl)quinoline-4-carboxamide] | 25.6 nM
3 | Cc1nn(Cc2ccc(F)cc2)c(C)c1NC(=O)c1cc(Br)nc2ccccc12 [Example 36, 2-bromo-N-[1-(4-fluorobenzyl)-3,5-dimethyl-1H-pyrazol-4-yl]quinoline-4-carboxamide] | 88.9 nM
4 | Cc1nn(Cc2ccc(F)cc2)c(C)c1NC(=O)c1c2c(nc3ccc(Br)cc13)CCCC2 [Example 37, 7-bromo-N-[1-(4-fluorobenzyl)-3,5-dimethyl-1H-pyrazol-4-yl]-1,2,3,4-tetrahydroacridine-9-carboxamide] | 26.7 nM
5 | Cc1c(NC(=O)c2cc(C(F)(F)F)nc3c(Cl)cc(Cl)cc23)c(C(F)(F)F)nn1Cc1ccc(F)cc1 [Example 38, 6,8-dichloro-N-[1-(4-fluorobenzyl)-5-methyl-3-(trifluoromethyl)-1H-pyrazol-4-yl]-2-(trifluoromethyl)quinoline-4-carboxamide] | 29.5 nM
6 | Cc1nn(Cc2ccc(F)cc2)c(C)c1NC(=O)c1cc(C(F)(F)F)nc2cc(F)c(F)cc12 [Example 39, 6,7-difluoro-N-[1-(4-fluorobenzyl)-3,5-dimethyl-1H-pyrazol-4-yl]-2-(trifluoromethyl)quinoline-4-carboxamide] | 30 nM
7 | Cc1nn(Cc2ccc(F)cc2)c(C)c1NC(=O)c1cc(C2CC2)nc2c(F)cccc12 [Example 40, 2-cyclopropyl-8-fluoro-N-[1-(4-fluorobenzyl)-3,5-dimethyl-1H-pyrazol-4-yl]quinoline-4-carboxamide] | 30 nM
8 | Cc1nn(Cc2ccc(F)cc2F)c(C)c1NC(=O)c1cc(C(F)(F)F)nc2ccc(Br)cc12 [Example 41, 6-bromo-N-[1-(2,4-difluorobenzyl)-3,5-dimethyl-1H-pyrazol-4-yl]-2-(trifluoromethyl)quinoline-4-carboxamide] | 30 nM
9 | COc1cc(C(=O)Nc2c(C)nn(Cc3c(F)cccc3F)c2C)c2ccccc2n1 [Example 42, N-[1-(2,6-difluorobenzyl)-3,5-dimethyl-1H-pyrazol-4-yl]-2-methoxyquinoline-4-carboxamide] | 30.9 nM
10 | Cc1cc(C(=O)Nc2c(C)nn(Cc3ccc(F)cc3)c2C)c2cc(Br)ccc2n1 [Example 43, 6-bromo-N-[1-(4-fluorobenzyl)-3,5-dimethyl-1H-pyrazol-4-yl]-2-methylquinoline-4-carboxamide] | 31.7 nM
11 | Cc1ccc2nc(C)cc(C(=O)Nc3c(C)nn(Cc4ccc(C#N)cc4)c3C)c2c1 [Example 44, N-[1-(4-cyanobenzyl)-3,5-dimethyl-1H-pyrazol-4-yl]-2,6-dimethylquinoline-4-carboxamide] | 32.1 nM
12 | Cc1ccc(Cn2nc(C)c(NC(=O)c3cc(C)nc4ccc(C)cc34)c2C)cc1 [Example 45, N-[3,5-dimethyl-1-(4-methylbenzyl)-1H-pyrazol-4-yl]-2,6-dimethylquinoline-4-carboxamide] | 35.4 nM
13 | Cc1nn(Cc2ccc(F)cc2)c(C)c1NC(=O)c1cc(C2CC2)nc2cccc(F)c12 [Example 46, 2-cyclopropyl-5-fluoro-N-[1-(4-fluorobenzyl)-3,5-dimethyl-1H-pyrazol-4-yl]quinoline-4-carboxamide] | 40 nM
14 | Cc1nn(Cc2ccc(F)c(F)c2)c(C)c1NC(=O)c1cc(C(F)(F)F)nc2ccc(Br)cc12 [Example 47, 6-bromo-N-[1-(3,4-difluorobenzyl)-3,5-dimethyl-1H-pyrazol-4-yl]-2-(trifluoromethyl)quinoline-4-carboxamide] | 44.4 nM
15 | Cc1nn(Cc2ccc(F)cc2F)c(C)c1NC(=O)c1cc(C(F)(F)F)nc2c(Cl)cc(Cl)cc12 [Example 48, 6,8-dichloro-N-[1-(2,4-difluorobenzyl)-3,5-dimethyl-1H-pyrazol-4-yl]-2-(trifluoromethyl)quinoline-4-carboxamide] | 44.4 nM
16 | Cc1nn(Cc2c(F)cc(F)cc2F)c(C)c1NC(=O)c1cc(C(F)(F)F)nc2ccc(Br)cc12 [Example 49, 6-bromo-N-[3,5-dimethyl-1-(2,4,6-trifluorobenzyl)-1H-pyrazol-4-yl]-2-(trifluoromethyl)quinoline-4-carboxamide] | 50 nM

Row | Structure (SMILES) | IC50
17 | COc1cc(C(=O)Nc2c(C)nn(Cc3c(F)cc(F)cc3F)c2C)c2ccccc2n1 [Example 50, N-[3,5-dimethyl-1-(2,4,6-trifluorobenzyl)-1H-pyrazol-4-yl]-2-methoxyquinoline-4-carboxamide] | 50 nM
18 | COc1cc(C(=O)Nc2c(C)nn(Cc3ccccc3C)c2C)c2ccccc2n1 [Example 51, N-[3,5-dimethyl-1-(2-methylbenzyl)-1H-pyrazol-4-yl]-2-methoxyquinoline-4-carboxamide] | 50 nM
19 | Cc1cccc(Cn2nc(C)c(NC(=O)c3cc(C(F)(F)F)nc4ccc(Br)cc34)c2C)c1 [Example 52, 6-bromo-N-[3,5-dimethyl-1-(3-methylbenzyl)-1H-pyrazol-4-yl]-2-(trifluoromethyl)quinoline-4-carboxamide] | 52.1 nM
20 | Cc1cc(C(=O)Nc2c(C)nn(Cc3ccc(F)cc3)c2C)c2cccc(Br)c2n1 [Example 53, 8-bromo-N-[1-(4-fluorobenzyl)-3,5-dimethyl-1H-pyrazol-4-yl]-2-methylquinoline-4-carboxamide] | 52.4 nM
21 | Cc1ccc(Cn2nc(C)c(NC(=O)c3cc(C(F)(F)F)nc4ccc(Br)cc34)c2C)cc1 [Example 54, 6-bromo-N-[3,5-dimethyl-1-(4-methylbenzyl)-1H-pyrazol-4-yl]-2-(trifluoromethyl)quinoline-4-carboxamide] | 58.3 nM
22 | COc1cc(C(=O)Nc2c(C)nn(Cc3ccc(F)c(F)c3)c2C)c2ccccc2n1 [Example 55, N-[1-(3,4-difluorobenzyl)-3,5-dimethyl-1H-pyrazol-4-yl]-2-methoxyquinoline-4-carboxamide] | 59.3 nM
23 | Cc1nn(Cc2ccc(OC(F)(F)F)cc2)c(C)c1NC(=O)c1cc(C(F)(F)F)nc2ccc(Br)cc12 [Example 56, 6-bromo-N-{3,5-dimethyl-1-[4-(trifluoromethoxy)benzyl]-1H-pyrazol-4-yl}-2-(trifluoromethyl)quinoline-4-carboxamide] | 60.4 nM
24 | Cc1nn(Cc2c(F)cc(F)cc2F)c(C)c1NC(=O)c1cc(C(F)(F)F)nc2c(Cl)cc(Cl)cc12 [Example 57, 6,8-dichloro-N-[3,5-dimethyl-1-(2,4,6-trifluorobenzyl)-1H-pyrazol-4-yl]-2-(trifluoromethyl)quinoline-4-carboxamide] | 66.7 nM
25 | Cc1ccc2nc(C)cc(C(=O)Nc3c(C)nn(Cc4ccc(OC(F)(F)F)cc4)c3C)c2c1 [Example 58, N-{3,5-dimethyl-1-[4-(trifluoromethoxy)benzyl]-1H-pyrazol-4-yl}-2,6-dimethylquinoline-4-carboxamide] | 77.1 nM
26 | Cc1nn(Cc2ccccc2)c(C)c1NC(=O)c1cc(C(F)(F)F)nc2c(Cl)cc(Cl)cc12 [Example 59, N-(1-benzyl-3,5-dimethyl-1H-pyrazol-4-yl)-6,8-dichloro-2-(trifluoromethyl)quinoline-4-carboxamide] | 92.6 nM
27 | Cc1nn(Cc2ccc(OC(F)(F)F)cc2)c(C)c1NC(=O)c1cc(C(F)(F)F)nc2c(Cl)cc(Cl)cc12 [Example 60, 6,8-dichloro-N-{3,5-dimethyl-1-[4-(trifluoromethoxy)benzyl]-1H-pyrazol-4-yl}-2-(trifluoromethyl)quinoline-4-carboxamide] | 97.9 nM
28 | COc1cc(C(=O)Nc2c(C)nn(Cc3ccc(C)cc3)c2C)c2ccccc2n1 [Example 61, N-[3,5-dimethyl-1-(4-methylbenzyl)-1H-pyrazol-4-yl]-2-methoxyquinoline-4-carboxamide] | 110 nM
29 | Cc1ccc2nc(C)cc(C(=O)Nc3c(C)nn(Cc4ccc(F)cc4)c3C)c2c1 [Example 62, N-[1-(4-fluorobenzyl)-3,5-dimethyl-1H-pyrazol-4-yl]-2,6-dimethylquinoline-4-carboxamide] | 127 nM
30 | Cc1nn(Cc2ccc(F)cc2)c(C)c1NC(=O)c1cc(C(F)(F)F)nc2ccc(OC(F)(F)F)cc12 [Example 63, N-[1-(4-fluorobenzyl)-3,5-dimethyl-1H-pyrazol-4-yl]-6-(trifluoromethoxy)-2-(trifluoromethyl)quinoline-4-carboxamide] | 129 nM
31 | Cc1ccc2nc(C)cc(C(=O)Nc3c(C)nn(Cc4ccc(F)c(F)c4)c3C)c2c1 [Example 64, N-[1-(3,4-difluorobenzyl)-3,5-dimethyl-1H-pyrazol-4-yl]-2,6-dimethylquinoline-4-carboxamide] | 130 nM
